# Test results published in patent US20240148821A1, “PHARMACEUTICAL USE OF CYCLIC PEPTIDE COMPOUND” (CHUGAI SEIYAKU KABUSHIKI KAISHA, priority 2021, published 2024).
# Bridge positions count the residues as written; N and C are the ends. Square brackets hold non-standard residues; d marks the D form. Peptide text beside a SMILES is read from it. * marks the point of attachment. hPhe(3,5-F2-4-CF3) = N[C@@H](CCc1cc(F)c(C(F)(F)F)c(F)c1)C(=O)O; hPhe(3-Cl-4-CF3) = N[C@@H](CCc1ccc(C(F)(F)F)c(Cl)c1)C(=O)O; NMePhe(4-CF3) = CN[C@@H](Cc1ccc(C(F)(F)F)cc1)C(=O)O; NMeAbu(4,4,4-F3) = CN[C@@H](CC(F)(F)F)C(=O)O; NMeGly(cPent) = CN[C@H](C(=O)O)C1CCCC1; Pro(4,4-F2) = O=C(O)[C@@H]1CC(F)(F)CN1; NMe4Pal = CN[C@@H](Cc1ccncc1)C(=O)O; NMeCha = CN[C@@H](CC1CCCCC1)C(=O)O; NMeGly(cPr) = CN[C@H](C(=O)O)C1CC1; NMeChg = CN[C@H](C(=O)O)C1CCCCC1; NMeD = CN[C@@H](CC(=O)O)C(=O)O; NMeL = CN[C@@H](CC(C)C)C(=O)O; NMePra = C#CC[C@H](NC)C(=O)O; NMeV = CN[C@H](C(=O)O)C(C)C; NMeS = CN[C@@H](CO)C(=O)O; dNMeS = CN[C@H](CO)C(=O)O; Morpholide = C1CN(*)CCO1; NMeA = CN[C@@H](C)C(=O)O; Piperidide = C1CCN(*)CC1; Ac5c = NC1(C(=O)O)CCCC1; Aze = O=C(O)[C@@H]1CCN1; Cyclopropyl = C1CC1*; Isopentyl = CC(C)CC*; Sar = CNCC(=O)O
# Test system: Human pancreatic cancer cell line AsPC-1 (G12D mutation Kras)
# Assay: AsPC-1 cell growth inhibition (AsPC-1 CGI)
# Type: cell-based
# Settings: read-out: AsPC-1 cell growth inhibition, 50% growth inhibitory concentration (IC50 value); 96 hours, CellTiter-Glo, values classified in ranges
# Description: Test compounds were serially dilated with dimethyl sulfoxide, and 200 nL was then dispensed to a U-bottom 96-well plate using Labcyte Echo. […] The cell suspension was dispensed to a. plate containing a test compound at 100 μL per well and incubated at 37° C. in a 5% carbon dioxide gas incubator. 96 hours later, 80 μL of CellTiter-Glo (Promega) was added to each well and fluorescence was measured.
row,Structure (SMILES),IC50
1,CC[C@H](C)[C@@H]1NC(=O)[C@H](CC(C)C)N(C)C(=O)C[C@@H](C(=O)N2CCCCC2)N(C)C(=O)[C@H](COC2CC2)N(C)C(=O)C2(CCCC2)NC(=O)[C@@H]2CCCN2C(=O)[C@H](CCc2ccc(C(F)(F)F)c(Cl)c2)NC(=O)CN(C)C(=O)[C@H](CC2CCCCC2)N(C)C(=O)CN(C)C(=O)CN(C)C1=O [Compound 1857] ([NMeL]I[Sar][Sar][NMeCha][Sar][hPhe(3-Cl-4-CF3)]P[Ac5c][NMeS](Cyclopropyl)[NMeD]-Piperidide; lactam N-11),> 500 nM
2,CC[C@H](C)[C@@H]1NC(=O)[C@H](CC(C)C)NC(=O)C[C@@H](C(=O)N2CCCCC2)N(C)C(=O)[C@H](C(C)C)N(C)C(=O)C2(CCCC2)NC(=O)[C@@H]2CCCN2C(=O)[C@H](CCc2ccc(C(F)(F)F)c(Cl)c2)NC(=O)CN(C)C(=O)[C@H](CC2CCCCC2)N(C)C(=O)[C@@H]2CCN2C(=O)[C@H](C)N(C)C1=O [Compound 368] (LI[NMeA][Aze][NMeCha][Sar][hPhe(3-Cl-4-CF3)]P[Ac5c][NMeV][NMeD]-Piperidide; lactam N-11),> 500 nM
3,CC[C@H](C)[C@@H]1NC(=O)[C@H](CC(C)C)N(C)C(=O)C[C@@H](C(=O)N2CCCCC2)N(C)C(=O)[C@H](C(C)C)N(C)C(=O)C2(CCCC2)NC(=O)[C@@H]2CCCN2C(=O)[C@H](CCc2ccc(C(F)(F)F)c(Cl)c2)NC(=O)CN(C)C(=O)[C@H](CC2CCCCC2)N(C)C(=O)[C@@H]2CCN2C(=O)[C@H](C2CC2)N(C)C1=O [Compound 1553] ([NMeL]I[NMeGly(cPr)][Aze][NMeCha][Sar][hPhe(3-Cl-4-CF3)]P[Ac5c][NMeV][NMeD]-Piperidide; lactam N-11),> 500 nM
4,CC[C@H](C)[C@@H]1NC(=O)[C@H](CC(C)C)N(C)C(=O)C[C@@H](C(=O)N(C)C)N(C)C(=O)[C@H](C2CCCC2)N(C)C(=O)[C@H](C(C)C)NC(=O)[C@@H](C)NC(=O)[C@H](CCc2ccc(C(F)(F)F)c(Cl)c2)NC(=O)CN(C)C(=O)[C@H](CC2CCCCC2)N(C)C(=O)[C@@H]2CCN2C(=O)[C@H](C)N(C)C1=O [Compound 24] ([NMeL]I[NMeA][Aze][NMeCha][Sar][hPhe(3-Cl-4-CF3)][dA]V[NMeGly(cPent)][NMeD]-NMe2; lactam N-11),> 500 nM
5,CC[C@H](C)[C@@H]1NC(=O)[C@H](CC(C)C)N(C)C(=O)C[C@@H](C(=O)N2CCCCC2)N(C)C(=O)[C@H](C(C)C)N(C)C(=O)C2(CCCC2)NC(=O)[C@@H](CO)N(C)C(=O)[C@H](CCc2ccc(C(F)(F)F)c(Cl)c2)NC(=O)CN(C)C(=O)[C@H](CC2CCCCC2)N(C)C(=O)[C@@H]2CCN2C(=O)[C@H](C)N(C)C1=O [Compound 1444] ([NMeL]I[NMeA][Aze][NMeCha][Sar][hPhe(3-Cl-4-CF3)][dNMeS][Ac5c][NMeV][NMeD]-Piperidide; lactam N-11),> 500 nM
6,C#CC[C@H]1C(=O)N(C)[C@H](C(=O)N2CCCCC2)CC(=O)N(C)[C@@H](CC(C)C)C(=O)N[C@@H]([C@@H](C)CC)C(=O)N(C)CC(=O)N(C)CC(=O)N(C)[C@@H](CC2CCCCC2)C(=O)N(C)CC(=O)N[C@@H](CCc2ccc(C(F)(F)F)c(Cl)c2)C(=O)N2CCC[C@H]2C(=O)NC2(CCCC2)C(=O)N1C [Compound 284] ([NMeL]I[Sar][Sar][NMeCha][Sar][hPhe(3-Cl-4-CF3)]P[Ac5c][NMePra][NMeD]-Piperidide; lactam N-11),> 500 nM
7,CC(C)CCOC[C@@H]1NC(=O)[C@H](CC(C)C)N(C)C(=O)C[C@@H](C(=O)N2CCCCC2)N(C)C(=O)[C@H](C2CCCCC2)N(C)C(=O)C2(CCCC2)NC(=O)[C@@H]2CCCN2C(=O)[C@H](CCc2ccc(C(F)(F)F)c(Cl)c2)NC(=O)CN(C)C(=O)[C@H](CC2CCCCC2)N(C)C(=O)CN(C)C(=O)CN(C)C1=O [Compound 794] ([NMeL]S(Isopentyl)[Sar][Sar][NMeCha][Sar][hPhe(3-Cl-4-CF3)]P[Ac5c][NMeChg][NMeD]-Piperidide; lactam N-11),> 500 nM
8,CC[C@H](C)[C@@H]1NC(=O)[C@H](CC(C)C)N(C)C(=O)C[C@@H](C(=O)N2CCCCC2)N(C)C(=O)[C@H](C2CCCCC2)N(C)C(=O)[C@@H](C(C)C)NC(=O)[C@@H]2CCCN2C(=O)[C@H](CCc2ccc(C(F)(F)F)c(Cl)c2)NC(=O)CN(C)C(=O)[C@H](CC2CCCCC2)N(C)C(=O)CN(C)C(=O)CN(C)C1=O [Compound 1138] ([NMeL]I[Sar][Sar][NMeCha][Sar][hPhe(3-Cl-4-CF3)]P[dV][NMeChg][NMeD]-Piperidide; lactam N-11),> 500 nM
9,"CC[C@H](C)[C@@H]1NC(=O)[C@H](CC(F)(F)F)N(C)C(=O)C[C@@H](C(=O)N2CCOCC2)N(C)C(=O)[C@H](C2CCCCC2)N(C)C(=O)C2(CCCC2)NC(=O)[C@@H]2CC(F)(F)CN2C(=O)[C@H](CCc2cc(F)c(C(F)(F)F)c(F)c2)NC(=O)CN(C)C(=O)[C@H](Cc2ccc(C(F)(F)F)cc2)N(C)C(=O)CN(C)C(=O)CN(C)C1=O [Compound 1260] ([NMeAbu(4,4,4-F3)]I[Sar][Sar][NMePhe(4-CF3)][Sar][hPhe(3,5-F2-4-CF3)][Pro(4,4-F2)][Ac5c][NMeChg][NMeD]-Morpholide; lactam N-11)",≤ 20 nM
10,CC[C@H](C)[C@@H]1NC(=O)[C@H](CC(C)C)N(C)C(=O)C[C@@H](C(=O)N2CCCCC2)N(C)C(=O)[C@H](C2CCCCC2)N(C)C(=O)C2(CCCC2)NC(=O)[C@H](Cc2ccncc2)N(C)C(=O)[C@H](CCc2ccc(C(F)(F)F)c(Cl)c2)NC(=O)CN(C)C(=O)[C@H](CC2CCCCC2)N(C)C(=O)[C@@H]2CCN2C(=O)[C@H](C)N(C)C1=O [Compound 656] ([NMeL]I[NMeA][Aze][NMeCha][Sar][hPhe(3-Cl-4-CF3)][NMe4Pal][Ac5c][NMeChg][NMeD]-Piperidide; lactam N-11),> 500 nM
